Experimental data as given in PubChem BioAssay AID256 (DTP/NCI, 2004).
Toxic doses and inconclusive results are not listed. Rule for the calls: active = survival T/C of 150% or more; inactive = T/C below 125% in these data.

System: CD2F1 mice, L1210 leukemia ip, survival T/C
Test: NCI In Vivo Anticancer Drug Screen. Data for tumor model L1210 Leukemia (intraperitoneal) in CD2F1 (CDF1) mice
Conditions: endpoint: mean survival time, higher = longer survival
Procedure, shortened: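 Each value reflects a quotient of treated over vehicle control outcomes in mice with a transplanted tumor.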

[1] = dose: 25.0 mg/kg/injection, schedule: Q01DX009 (ip), vehicle: saline with Tween-80
[2] = dose: 50.0 mg/kg/injection, schedule: Q01DX009 (ip), vehicle: saline with Tween-80
[3] = dose: 100.0 mg/kg/injection, schedule: Q01DX009 (ip), vehicle: saline with Tween-80
[4] = dose: 100.0 mg/kg/injection, schedule: Q04DX003 (ip), vehicle: saline with Tween-80
[5] = dose: 200.0 mg/kg/injection, schedule: Q04DX003 (ip), vehicle: saline with Tween-80
[6] = dose: 400.0 mg/kg/injection, schedule: Q04DX003 (ip), vehicle: saline with Tween-80
[7] = dose: 200.0 mg/kg/injection, schedule: Q01DX009 (ip), vehicle: saline with Tween-80
[8] = dose: 400.0 mg/kg/injection, schedule: Q01DX009 (ip), vehicle: saline with Tween-80
[9] = dose: 25.0 mg/kg/injection, schedule: Q01DX009 (ip), vehicle: saline
[10] = dose: 50.0 mg/kg/injection, schedule: Q01DX009 (ip), vehicle: saline
[11] = dose: 100.0 mg/kg/injection, schedule: Q01DX009 (ip), vehicle: saline
[12] = dose: 100.0 mg/kg/injection, schedule: Q01DX001 (ip), vehicle: saline
[13] = dose: 200.0 mg/kg/injection, schedule: Q01DX001 (ip), vehicle: saline
[14] = dose: 100.0 mg/kg/injection, schedule: Q01DX001 (ip), vehicle: saline with Tween-80
[15] = dose: 100.0 mg/kg/injection, schedule: Q04DX003 (ip), vehicle: Klucel (hydroxypropylcellulose) (HPC)
[16] = dose: 200.0 mg/kg/injection, schedule: Q04DX003 (ip), vehicle: Klucel (hydroxypropylcellulose) (HPC)
[17] = dose: 400.0 mg/kg/injection, schedule: Q04DX003 (ip), vehicle: Klucel (hydroxypropylcellulose) (HPC)
[18] = dose: 50.0 mg/kg/injection, schedule: Q01DX009 (ip), vehicle: Klucel (hydroxypropylcellulose) (HPC)
[19] = dose: 100.0 mg/kg/injection, schedule: Q01DX009 (ip), vehicle: Klucel (hydroxypropylcellulose) (HPC)
[20] = dose: 200.0 mg/kg/injection, schedule: Q01DX009 (ip), vehicle: Klucel (hydroxypropylcellulose) (HPC)
[21] = dose: 400.0 mg/kg/injection, schedule: Q01DX009 (ip), vehicle: Klucel (hydroxypropylcellulose) (HPC)

Measured: T/C

CC1=CC(=O)C(c2ccc(O)cc2O)=CC1=O
inactive: dose: 2.5 mg/kg/injection, schedule: Q01DX009 (ip), vehicle: saline with Tween-80 96 % of control | dose: 2.5 mg/kg/injection, schedule: Q04DX003 (ip), vehicle: saline with Tween-80 102 % of control | dose: 5.0 mg/kg/injection, schedule: Q01DX009 (ip), vehicle: saline with Tween-80 91 % of control | dose: 5.0 mg/kg/injection, schedule: Q04DX003 (ip), vehicle: saline with Tween-80 104 % of control | dose: 10.0 mg/kg/injection, schedule: Q01DX009 (ip), vehicle: saline with Tween-80 95 % of control | dose: 10.0 mg/kg/injection, schedule: Q04DX003 (ip), vehicle: saline with Tween-80 95 % of control

CCCCN1CCN(CCCC)C1CCC
inactive: [1] 98 % of control | [2] 102 % of control | [3] 96 % of control

N#CC(c1c[nH]c2ccccc12)N1CCOCC1 (stereo not given)
inactive: dose: 25.0 mg/kg/injection, schedule: Q04DX002 (ip), vehicle: saline with Tween-80 105 % of control | dose: 50.0 mg/kg/injection, schedule: Q04DX002 (ip), vehicle: saline with Tween-80 100 % of control

COC1=c2\cccc\c2=N\C(OC)=c2\cccc\c2=N\1
inactive: [4] 101 % of control | [5] 101 % of control | [6] 98 % of control

CCOC(=O)c1ccc(OC(=O)Nc2ccc(Cl)cc2)cc1
inactive: [3] 96 % of control | [4] 94 % of control | [7] 102 % of control | [5] 94 % of control | [8] 100 % of control

CC1CCC(C(O)(C(=O)c2ccccc2)c2ccccc2)C(=O)C1 (stereo not given)
inactive: [3] 100 % of control | [7] 98 % of control | [8] 98 % of control

ONc1ccccn1
inactive: [9] 101 % of control | [10] 96 % of control | dose: 50.0 mg/kg/injection, schedule: Q04DX003 (ip), vehicle: saline 98 % of control | [11] 95 % of control | dose: 100.0 mg/kg/injection, schedule: Q04DX003 (ip), vehicle: saline 98 % of control

COC(=O)C1CC[N-]CC1.COC(=O)C1CC[N-]CC1.[Cl][Pt+2][Cl]
inactive: [3] 115 % of control | [7] 114 % of control

CCCN(CCC)S(=O)(=O)c1ccc(NC(=O)OC2CCCCCC2)cc1
inactive: [12] 104 % of control | [13] 108 % of control | dose: 400.0 mg/kg/injection, schedule: Q01DX001 (ip), vehicle: saline 104 % of control

Cc1cscc(C)c1=S
inactive: dose: 100.0 mg/kg/injection, schedule: Q04DX003 (ip), vehicle: saline sonified 98 % of control | dose: 200.0 mg/kg/injection, schedule: Q04DX003 (ip), vehicle: saline sonified 98 % of control | dose: 400.0 mg/kg/injection, schedule: Q04DX003 (ip), vehicle: saline sonified 100 % of control

Cc1ccc(S(=O)(=O)N(CCCc2c(C)nc(N)nc2Nc2ccccc2)c2ccccc2)cc1
inactive: [14] 92 % of control

O=C(COc1ccccc1)Nc1ccc(Br)cc1
inactive: dose: 100.0 mg/kg/injection, schedule: Q01DX001 (ip), vehicle: Klucel (hydroxypropylcellulose) (HPC) 97 % of control | dose: 200.0 mg/kg/injection, schedule: Q01DX001 (ip), vehicle: Klucel (hydroxypropylcellulose) (HPC) 105 % of control | dose: 400.0 mg/kg/injection, schedule: Q01DX001 (ip), vehicle: Klucel (hydroxypropylcellulose) (HPC) 105 % of control

CC(C)(c1ccc(Nc2ccccc2)cc1)c1ccc(Nc2ccccc2)cc1
inactive: [15] 96 % of control | [16] 96 % of control | [17] 92 % of control

C(=N\Nc1nc2ccccc2s1)/c1ccc(/C=N/Nc2nc3ccccc3s2)cc1
inactive: [15] 92 % of control | [16] 92 % of control | [17] 94 % of control

Clc1ccc(N=C/C=C/c2ccccc2)cc1
inactive: dose: 25.0 mg/kg/injection, schedule: Q01DX009 (ip), vehicle: other 101 % of control | dose: 50.0 mg/kg/injection, schedule: Q01DX009 (ip), vehicle: other 97 % of control | dose: 100.0 mg/kg/injection, schedule: Q01DX009 (ip), vehicle: other 95 % of control | dose: 100.0 mg/kg/injection, schedule: Q04DX003 (ip), vehicle: other 87 % of control | dose: 400.0 mg/kg/injection, schedule: Q04DX003 (ip), vehicle: other 89 % of control

C1=CC2c3ccc4ccccc4c3C(c3ccccc3)C2C=C1 (stereo not given)
inactive: [4] 108 % of control | [5] 96 % of control | [6] 102 % of control

O=c1[nH]c(NCCc2ccccc2)c(Br)c(=O)[nH]1
inactive: dose: 75.0 mg/kg/injection, schedule: Q01DX001 (ip), vehicle: saline with Tween-80 98 % of control | dose: 150.0 mg/kg/injection, schedule: Q01DX001 (ip), vehicle: saline with Tween-80 102 % of control | dose: 300.0 mg/kg/injection, schedule: Q01DX001 (ip), vehicle: saline with Tween-80 106 % of control

CCCCCCCCCCCCCCCC[n+]1cccc(C(=O)NCO)c1
inactive: dose: 6.25 mg/kg/injection, schedule: Q01DX009 (ip), vehicle: saline with Tween-80 102 % of control | dose: 12.5 mg/kg/injection, schedule: Q01DX009 (ip), vehicle: saline with Tween-80 95 % of control | [1] 95 % of control | dose: 50.0 mg/kg/injection, schedule: Q04DX003 (ip), vehicle: saline with Tween-80 103 % of control | [5] 103 % of control

O=C1/C(=C/c2ccc(Cl)c(Cl)c2)CCC/C1=C\c1ccc(Cl)c(Cl)c1
inactive: [15] 98 % of control | [16] 100 % of control | [17] 98 % of control

O=C1NC(c2ccccc2Cl)Nc2ccccc21 (stereo not given)
inactive: [18] 91 % of control | [19] 107 % of control | [20] 93 % of control | [21] 93 % of control

O=c1[nH]c(=O)n(C2CC(O)C(CO)O2)cc1Br (stereo not given)
inactive: dose: 25.0 mg/kg/injection, schedule: Q01DX009 (ip), vehicle: Klucel (hydroxypropylcellulose) (HPC) 103 % of control | [18] 123 % of control | [19] 120 % of control | [20] 112 % of control | [21] 112 % of control | dose: 800.0 mg/kg/injection, schedule: Q01DX009 (ip), vehicle: Klucel (hydroxypropylcellulose) (HPC) 115 % of control

Cc1ncc(C=O)c(C)c1O
inactive: dose: 75.0 mg/kg/injection, schedule: Q01DX001 (ip), vehicle: other 101 % of control

O=C(SC1=NCCN1)c1ccccc1
inactive: [12] 94 % of control | [13] 102 % of control

NN1C(=O)c2c(Cl)c(Cl)c(Cl)c(Cl)c2C1=O
inactive: [3] 97 % of control | [4] 95 % of control | [7] 98 % of control | [5] 97 % of control | [8] 93 % of control | [6] 92 % of control

S=C(NCc1ccccc1)NCc1ccccc1
inactive: [4] 108 % of control | [5] 100 % of control | [6] 102 % of control

CC(=O)c1ccc[n+](Cc2ccc([N+](=O)[O-])cc2)c1
inactive: [9] 117 % of control | [10] 109 % of control | [11] 108 % of control

c1ccc(C2=C(c3ccccc3)OC(c3ccccc3)=C(c3ccccc3)O2)cc1
inactive: [1] 92 % of control | dose: 50.0 mg/kg/injection, schedule: Q01DX001 (ip), vehicle: saline with Tween-80 87 % of control | [2] 102 % of control | [14] 89 % of control | [3] 88 % of control

O=C(O)C(O)C(=O)O.[NH-]C1CCCCC1[NH-].[Pt+2]
inactive: dose: 1.18 mg/kg/injection, schedule: Q04DX003 (ip), vehicle: saline with Tween-80 109 % of control | dose: 2.35 mg/kg/injection, schedule: Q04DX003 (ip), vehicle: saline with Tween-80 120 % of control | dose: 4.7 mg/kg/injection, schedule: Q04DX003 (ip), vehicle: saline with Tween-80 124 % of control

FC1(F)C(I)=C(I)C1(F)F
inactive: dose: 75.0 mg/kg/injection, schedule: Q01DX001 (ip), vehicle: saline 97 % of control | dose: 150.0 mg/kg/injection, schedule: Q01DX001 (ip), vehicle: saline 103 % of control | dose: 300.0 mg/kg/injection, schedule: Q01DX001 (ip), vehicle: saline 105 % of control
